Earlier results as cited in patent US6825217B2, “Carbinols for the treatment of neuropathic dysfunction” (Endo Pharmaceuticals, Inc., priority 2001, dated 2004).

Settings: rat, in vivo; cited from earlier work

Q: For `CSCC[C@@H]1NC(=O)[C@H](CC(C)C)NC(=O)[C@H](CCCNC(=N)N)NC(=O)[C@H](CO)NC(=O)[C@@H]2CSSC[C@@H]3NC(=O)[C@H](CO)NC(=O)CNC(=O)[C@H]([C@@H](C)O)NC(=O)[C@H](CSSC[C@H](N)C(=O)N[C@@H](CCCCN)C(=O)NCC(=O)N[C@@H](CCCCN)C(=O)NCC(=O)N[C@@H](C)C(=O)N[C@@H](CCCCN)C(=O)N2)NC(=O)[C@H](CSSC[C@@H](C(N)=O)NC(=O)[C@H](CCCCN)NC(=O)CNC(=O)[C@H](CO)NC(=O)[C@H](CCCNC(=N)N)NC3=O)NC(=O)[C@H](CC(=O)O)NC(=O)[C@H](Cc2ccc(O)cc2)NC1=O` [SNX-111], which “duration of reduction of heat hyperalgesia and mechanical allodynia” value is on record?
A: at least three hours

Q: And the heat hyperalgesia?
A: reduced

Q: And the mechanical allodynia?
A: reduced

Q: And the mechanical hyperalgesia?
A: no effect

Q: What about the “responses to sensory stimuli, thermal or mechanical” value of the same compound?
A: no effect
